How the values were obtained:
[1] = system: CFU-Mk, platelet precursors (human bone marrow mononuclear cells); test: Colony forming unit (CFU) assay (Example 6); assay type: cell-based; conditions: for effect of antagonist on substance P enhanced platelet colony formation: in the presence of substance P
From the text: (§1) As stem cells differentiate in response to growth factors, they form a colony of cells with distinct morphologies that can be visualized using a microscope. This study examined the formation of three different progenitor cell populations, erythrocytes, platelets and granulocytes/macrophages.
(§2) Bone marrow aspirates were obtained from three healthy donors between 18 and 35 years of age following appropriate guidelines and protocols. Bone marrow mononuclear cells were isolated using a Ficoll-Hypaque density gradient, separating red blood cells from the others. Cells from each donor were processed independently and used for setting up individual experiments to assess the effects, if any, of donor variability.
(§3) Cells (1×10^5) were plated in duplicate onto 35 mm tissue culture plates for each condition tested and set up as described in Rameshwar et al. 1993, Blood. 81:2, 391-398. Erythroid and granulocyte/macrophage cultures were plated using methylcellulose and megakaryocyte cultures (platelet precursors) used a collagen-based support (StemCell Technologies, Vancouver, Canada, catalogue #04973). […] CP 99,994 (Pfizer) was used as a neurokinin-1 receptor antagonist and SR 48968 (Sanofi) was used as a neurokinin-2 receptor antagonist.
Cultures were set up with limited cytokines and growth factors which would promote differentiation of one progenitor per plate.
Each compound was dissolved in endotoxin-free water to a final concentration of 0.1 mM. After reconstitution, the solutions were aliquoted into siliconized microcentrifuge tubes and exposed to nitrogen gas, eliminating oxygen in the head space of the enclosure. All aliquots were stored at −20° C. until use and used within one month of reconstitution. See, Rameshwar, et al. 1997, J. Immunol.
Cultures were incubated at 37° C. with 5% CO2 for approximately 14 days, after which colonies were manually enumerated using a microscope. […]

[2] = system: human bone marrow-derived hematopoietic cell populations; test: CFC and iATP assays, all 7 cell populations (Example 3); assay type: cell-based; conditions: most of populations; 14 days; up to 1 nM
Description: The compound was dissolved in 1 ml of Iscove's Modified Dulbecco's Medium (IMDM) and a serial dose response prepared in single log doses so that the final dose in culture ranged from 1 nM to 1×10^−16 M. All working dilutions were performed in IMDM.
Starting with human bone marrow aspirate, the mononuclear cell (MNC) fraction was separated from the whole bone marrow using Ficoll-Paque density gradient centrifugation. […] The cell concentration was adjusted so that the final cell concentration in culture was 10,000 cells/well.
Human bone marrow MNC was dissolved in IMDM and cultured at a concentration of 10,000 cell/well in a CAMEO™-96 Master Mix (HemoGenix, Inc., Colorado Springs, Colo.). […]
Prior to processing all 96-well plates, the total colony counts/well were manually enumerated by microscopy. The mean, standard deviation and percent coefficient of variation was calculated for all groups, transposed and plotted. The intracellular ATP (iATP) concentration was measured after manual enumeration.
The output of the luminometer is non-standardized Relative Luminescence Units (RLU). […] This allowed the RLU values to be automatically calculated into standardized ATP (μM) units. For both the RLU and ATP values derived from each well, the luminometer software calculated the mean, standard deviation and percent coefficient of variation.

[3] = system: human-derived hematopoietic cell populations; test: CFC assay, multi-donor study, all seven cell populations (Example 4); assay type: cell-based; conditions: highest doses (up to 1 nM); three donors
Description: Compound was dissolved in 1 ml of Iscove's Modified Dulbecco's Medium (IMDM) and a serial dose response was prepared in single log doses so that the final dose in culture ranged from 1 nanoMolar (nM) to 1×10^−16 M. All working dilutions were performed in IMDM. Cell cultures from each donor were started at different times and a fresh solution of Homspera® was prepared for each individual experiment.
Starting with human bone marrow aspirate, the mononuclear cell (MNC) fraction from each aspirate was separated from whole bone marrow using Ficoll-Paque density gradient centrifugation.
The colony-forming cell (CFC) assay was performed using optimal growth factor/cytokine concentrations. The reagents and conditions were similar to those used in Example 3, except that no ATP measurements were performed. The MNC fraction from each bone marrow donor was dissolved in IMDM and cultured at a concentration of 5,000 cells/well in a Culture Master Mix (HemoGenix, Inc., Colorado Springs, Colo.). […]
The mean, standard deviation and percent coefficient of variation was calculated for all groups, transposed and plotted as a function of donor. The percent from control values were calculated and also plotted as a function of donor. […]

[4] = system: neurokinin-1 (NK1) receptor; NK2 and NK3 receptors; conditions: Tousignant et al. 1990; cited from earlier work
[5] = system: BFU-E (human bone marrow mononuclear cells); test: Colony forming unit (CFU) assay (Example 6); assay type: cell-based; conditions: approximately 14 days; FIG. 1
From the text: as §1, §2
as §3, with “antagonist. […]” for “antagonist.”

[6] = system: CFU-E (human bone marrow mononuclear cells); test: Colony forming unit (CFU) assay (Example 6); assay type: cell-based; conditions: approximately 14 days; FIG. 2
From the text: as §1, §2
as §3, with “antagonist. […]” for “antagonist.”

Which “effect of antagonist on substance P enhanced platelet colony formation” value [1] does the source give for `COc1ccccc1CN[C@H]1CCCN[C@H]1c1ccccc1` [CP-99,994] here?
The value was “blocks the stimulatory activity of substance P”.

Which results are given for `CC(C)C[C@H](NC(=O)CN(C)C(=O)[C@H](Cc1ccccc1)NC(=O)[C@H](Cc1ccccc1)NC(=O)[C@H](CCC(N)=O)NC(=O)[C@H](CCC(N)=O)NC(=O)[C@@H]1CCCN1C(=O)[C@H](CCCCN)NC(=O)[C@@H]1CCCN1C(=O)[C@@H](N)CCCNC(=N)N)C(=O)N[C@@H](CCS(C)(=O)=O)C(N)=O` [Homspera®]?
cytotoxicity [2]: apparent absence of distinct cytotoxicity; toxicity [3]: no apparent toxicity

With `CC(=O)NC1(c2ccccc2)CCN(CC[C@H](CN(C)C(=O)c2ccccc2)c2ccc(Cl)c(Cl)c2)CC1` [SR48968] as the molecule, how does the “effect of antagonist on substance P enhanced platelet colony formation” value [1] read?
The value was “no effect on substance P activity”.

Which neurokinin receptor specificity [4] does the source give for RPKPQQFFGLM [substance P] here?
Its neurokinin receptor specificity is “can also activate the neurokinin-2 (NK2) and neurokinin-3 (NK3) receptors”.

And the “effective concentration, platelet precursors (CFU-Mk)” value [1]?
Its value is 10^−8 M.

And the “BFU-E colony formation, increase from control values” [5]?
Its value is roughly 60%.

And the “CFU-E colony formation, enhancement from control values” [6]?
The value was “about 70%”.

Reference: US20100143477A1, “Methods and Compositions for Stimulating the Proliferation or Differentiation of Stem Cells with Substance Por an Analog Thereof” (Immuneregen Biosciences, Inc., priority 2007, published 2010)
